Results as given in patent US20080177220A1, “Ultrasound-Mediated Transcleral Drug Delivery” (THE CURATORS OF THE UNIVERSITY OF MISSOURI, priority 2006, published 2008).

Legend:
[1] = Diffusion of Sodium Fluorescein formulation across Cellu-Por synthetic membrane simulating ocular tissue, with or without ultrasound; assay type: in vitro ADME; conditions: ultrasound applied concurrently during application of the formulation, FIG. 3
From the text: The control results 302 display the effect of allowing the formulation to diffuse naturally, while the ultrasound results 304 display the effect of applying ultrasound concurrently during application of the formulation.

[2] = Diffusion of Sodium Fluorescein formulation through RCS tissue in a Franz diffusion cell at different ultrasound standoff distances; assay type: in vitro ADME, New Zealand albino rabbits; conditions: treat far, 1.00±0.01 cm standoff distance, versus 0.50±0.01 cm (treat near) / control without ultrasound, rabbit RCS tissue, FIG. 4
From the text: By using a standoff distance 136, drug transport can be optimized. A standoff distance is desired to optimize the cavitation effects in the Fraunhofer zone of the ultrasonic energy field. […] The control results 402 represent normal diffusion action of the formulation in the absence of ultrasound. The treat near results 404 represent diffusion of the formulation achieved using a 0.50±0.01 cm standoff distance. The treat far results 406 represent diffusion of the formulation achieved using a 1.00±0.01 cm standoff distance. […] The optimum standoff distance can vary depending on a number of factors, such as, for example, the coupling media, the transducer configuration, the targeted tissue, and the pharmaceutical formulation being administered. The optimum standoff distance for transcleral drug delivery differs from drug delivery attempted through the cornea due to the numerous factors discussed above, including inherent tissue differences and transport phenomena occurring in the blood-retina barrier.

In the case of `O=C([O-])c1ccccc1-c1c2ccc(=O)cc-2oc2cc([O-])ccc12.[Na+].[Na+]` [Sodium Fluorescein], the “permeability with ultrasonic waves versus control (natural diffusion)” value [1] is reported as “substantially higher” and the “permeability increase using the greater standoff distance” value [2] is reported as “approximately 30 times higher”.
